Experiments:
Format in all cases: binding
At279 (At3g63170) [1] = molecular target: T1, At279 (At3g63170) (Arabidopsis thaliana, UniProt Q9M1X2); assay: LC-MS analysis of fatty acids bound to purified At279 protein; details: protein over-expressed in and purified from E. coli, ethanol extract, negative-ion ESI
T1 construct: At279 and At287 proteins were purified to homogeneity as described above; His tag (pHIS8 vector) (N, cleaved yes); made in house; host or cells: E. coli BL21 (DE3)
T1 sequence (Q9M1X2 1-279): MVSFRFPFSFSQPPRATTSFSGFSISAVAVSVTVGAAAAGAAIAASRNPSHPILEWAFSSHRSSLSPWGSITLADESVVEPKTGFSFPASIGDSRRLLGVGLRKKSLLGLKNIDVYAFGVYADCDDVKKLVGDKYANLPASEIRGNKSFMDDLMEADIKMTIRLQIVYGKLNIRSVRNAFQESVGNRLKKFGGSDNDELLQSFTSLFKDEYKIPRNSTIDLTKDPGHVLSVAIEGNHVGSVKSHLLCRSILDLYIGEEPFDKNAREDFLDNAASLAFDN
Procedure: (§1) Cloning, expression and purification of At3g63170 (At279) and At1g53520 (At287): Arabidopsis thaliana At3g63170 (At279) and At1g53520 (At287) genes were subcloned into the pHIS8 Escherichia coli expression vector derived from pET28a (+). For crystallization purpose, constructs of At279 and At287 lacking the transit peptide sequence found at the N-terminal region of the protein (˜50 amino acids) were also created. Transformed E. coli. BL21 (DE3) cells were incubated with shaking at 37° C. in Terrific broth containing 50 μg/ml kanamycin until A([…])=1.0. Protein expression was induced with 0.5 mM isopropyl 1-thio-β-galactopyranoside, and the cultures were incubated with shaking at 22° C. for an additional 6 h. Cells were harvested by centrifugation at 9,000×g and cell pellets re-suspended in lysis buffer (500 mM NaCl, 50 mM Tris-HCl (pH 8.0), 20 mM imidazole, 10% (v/v) glycerol 1% (v/v) Tween 20, 10 mM […]) supplemented with 1 mg/ml lysozyme. Following sonication and centrifugation of the lysed cell debris at 100,000×g, the supernatant was passed over a Ni2+-NTA column (Qiagen, Valencia, Calif.) equilibrated in lysis buffer, washed with 10 bed volumes of wash buffer (500 mM NaCl, 50 mM Tris-HCl (pH 8.0), 20 mM imidazole, 10 mM β-mercaptoethanol), and the His-tagged protein eluted with 10 bed volumes of elution buffer (500 mM NaCl, 50 mM Tris-HCl (pH 8.0), 250 mM imidazole, 10 mM β-mercaptoethanol). The N-terminal His tag was cleaved by thrombin digestion during a 24-h dialysis against digestion buffer (500 mM NaCl, 50 mM Tris (pH 8.0), 10 mM β-mercaptoethanol) at 4° C. Cleaved protein was isolated by running the dialyzed sample over another Ni2+-NTA column equilibrated in digestion buffer to remove the His tag and uncleaved protein, followed by a benzamidine-Sepharose column to remove thrombin. A Superdex S75 gel filtration column (Amersham Biosciences) equilibrated in gel filtration buffer (500 mM NaCl, 25 mM HEPES (pH 7.5), 2 mM dithiothreitol (DTT) was utilized to isolate homogeneous At279 and A287. Peak fractions were collected and dialyzed against crystallization storage buffer (100 mM NaCl, 25 mM HEPES (pH 7.5), 2 mM DTT). The resulting samples were subjected to SDS-PAGE and judged to be >95% pure based upon Coomassie staining. At279 and At287 were subsequently concentrated to 10-15 mg/ml and stored at −80° C.
(§2) At279 and At287 proteins were purified to homogeneity as described above. Ice-cold HPLC grade ethanol (600 μl) was added to the proteins (150 μl protein sample at 10 mg/ml previously dialyzed against 20 mM ammonium bicarbonate). The samples were vortexed and incubated at −20° C. for 3 days. For LC-MS analysis, the samples were centrifuged, and the supernatant containing the FAs was removed and placed in a new glass vial. The solvent was evaporated at 25° C., and the remaining residue resuspended in 200 μl propanol. The extracts were analyzed by liquid chromatography (LC) using an Agilent 1100 HPLC employing a Gemini reversed-phase C18 column (4.6×150 mm, 5 μ) running at a flow rate of 1 ml/min, and coupled to an electrospray ionization (ESI) XCT ion trap mass spectrometer (Agilent) operated in the negative-ion mode employing a continual introduction of a 20 mM ammonium acetate solution flowing at 100 μl/min. A linear gradient of acetonitrile (30-100% v/v) in 25 mM ammonium bicarbonate, pH 8, was used. The negative ion-ESI mass spectra of FA standards were as follows: Laurie acid (C12:0) (m/z)=198.7 ([M-H]-), Myristic acid (C14:0) (m/z)=226.9 ([M-H]-), Palmitic acid (C16:0)/m/z)=254.9 ([M-H]-) and Stearic acid (C18:0) (m/z)=282.9 ([M-H]-).

At287 (At1g53520) = molecular target: T2, At287 (At1g53520) (Arabidopsis thaliana, UniProt Q9C8L2); assay: LC-MS analysis of fatty acids bound to purified At287 protein; details: protein over-expressed in and purified from E. coli, ethanol extract, negative-ion ESI
T2 construct: At279 and At287 proteins were purified to homogeneity as described above; His tag (pHIS8 vector) (N, cleaved yes); made in house; host or cells: E. coli BL21 (DE3)
T2 sequence (Q9C8L2 73-287): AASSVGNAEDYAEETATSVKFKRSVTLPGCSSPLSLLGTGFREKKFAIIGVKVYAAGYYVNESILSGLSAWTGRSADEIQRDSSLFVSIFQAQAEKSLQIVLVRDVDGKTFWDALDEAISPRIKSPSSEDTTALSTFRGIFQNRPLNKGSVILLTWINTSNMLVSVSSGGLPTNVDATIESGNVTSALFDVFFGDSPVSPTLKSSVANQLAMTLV
Procedure: as §1, §2

At279 (At3g63170) [2] = molecular target: T3, At279 (At3g63170) (Arabidopsis thaliana, UniProt Q9M1X2); assay: X-ray crystal structure of At279 with bound small molecule; details: ligand likely derived from E. coli, carboxylic acid sequestered by Arg 103 and Tyr 116
T3 construct: Crystals of the heterologously expressed At279 C-terminal construct (residues 77 to 279) were obtained by vapor diffusion; His tag (pHIS8 vector) (N, cleaved yes); made in house; host or cells: E. coli BL21 (DE3)
T3 sequence (Q9M1X2 77-279): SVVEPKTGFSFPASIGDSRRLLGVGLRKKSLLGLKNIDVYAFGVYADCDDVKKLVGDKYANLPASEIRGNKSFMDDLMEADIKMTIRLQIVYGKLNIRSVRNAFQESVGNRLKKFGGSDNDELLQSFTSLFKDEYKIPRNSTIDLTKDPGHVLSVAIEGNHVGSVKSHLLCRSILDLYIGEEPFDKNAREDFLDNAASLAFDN
Procedure: Crystals of the heterologously expressed At279 C-terminal construct (residues 77 to 279) were obtained by vapor diffusion in 2 μl hanging drops incubated at 4° C. and consisting of a 1:1 mixture of protein and crystallization buffer. The crystallization buffer contained 19% (w/v) PEG 3350, 0.3 M KCl, 2 mM DTT and 100 mM TAPS buffer at pH 8.5. Prior to freezing in liquid nitrogen, native crystals were passed through a cryogenic buffer identical to the crystallization buffer except for the use of 21% (w/v) PEG 3350 and the inclusion of 20% (v/v) ethylene glycol. For heavy atom derivatization, native At279 crystals were soaked overnight in crystallization buffer differing from the crystallization solution due to an increased PEG 3350 concentration (21% (w/v)) and the inclusion of 1 mM K2PtCl4 prior to cryogenic freezing as before. A multi-wavelength anomalous dispersion (MAD) data set was collected at the Pt edge on a K2PtCl4 derivative crystal at the Stanford Synchrotron Radiation Laboratory (SSRL) on beam line BL1-5. Data were processed with HKL2000 and reduced to a unique set of indexed intensities to a resolution of 2.6 Å. A single-wavelength native data set was collected at SSRL and processed with HXL2000 to a resolution of 1.9 Å. At279 crystals belong to the P2(1)2(1)2(1) space group, with average unit cell dimensions of a=56.44 Å, b=56.96 Å, c=140.37 Å, α=β=γ=90°. […]

Row | fatty acid bound to purified At279 (presence in protein extract by LC-MS) (At279 (At3g63170) [1]) | fatty acid bound to purified At279 (presence in protein extract by LC-MS) (At279 (At3g63170) [1]; listed as C14:0) | fatty acid bound to purified At287 (presence in protein extract by LC-MS) (At287 (At1g53520)) | fatty acid bound to purified At287 (presence in protein extract by LC-MS) (At287 (At1g53520); listed as C14:0) | fatty acid bound to purified At279 (presence in protein extract by LC-MS) (At279 (At3g63170) [1]; listed as C16:0) | fatty acid bound to purified At287 (presence in protein extract by LC-MS) (At287 (At1g53520); listed as C16:0) | fatty acid bound to purified At279 (presence in protein extract by LC-MS) (At279 (At3g63170) [1]; listed as C18:0) | fatty acid bound to purified At287 (presence in protein extract by LC-MS) (At287 (At1g53520); listed as C18:0) | fatty acid bound to purified At279 (presence in protein extract by LC-MS) (At279 (At3g63170) [1]; listed as C12:0) | fatty acid bound to purified At287 (presence in protein extract by LC-MS) (At287 (At1g53520); listed as C12:0) | SMILES | small molecule bound in At279 crystal structure (At279 (At3g63170) [2]) | small molecule bound in At279 crystal structure (At279 (At3g63170) [2]; listed as lauric acid)
1 | bind | clearly showed the presence | bind | clearly showed the presence | – | – | – | – | – | – | CCCCCCCCCCCCCC(=O)O [Myristic acid] | – | –
2 | bind | – | bind | – | clearly showed the presence | clearly showed the presence | – | – | – | – | CCCCCCCCCCCCCCCC(=O)O [Palmitic acid] | – | –
3 | bind | – | bind | – | – | – | clearly showed the presence | clearly showed the presence | – | – | CCCCCCCCCCCCCCCCCC(=O)O [Stearic acid] | – | –
4 | bind | – | bind | – | – | – | – | – | clearly showed the presence | clearly showed the presence | CCCCCCCCCCCC(=O)O [Laurie acid, lauric acid] | sequestered in a well-organized binding pocket | bound in a cavity partially overlapping with the originally identified CHI active site

From US8252973B2, “Metabolic engineering of lipid metabolism by improving fatty acid binding and transport” (The Salk Institute for Biological Studies, priority 2006, dated 2012)
